# From the supplement of paper PMC10307832
# Tests used:
# Assay in all cases: relative viability (nuclei count vs DMSO), 5 days (fraction); higher = more cells survive
# NCI-H838 = tested on: NCI-H838
# How it was run: (§1)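 After 5 days of treatment, lung cancer cells in 1536-well plates were fixed and stained in a single step (final 0.05% Triton X-100, 1% formaldehyde, 1 ug/ml Hoechst) and their nuclei counted on 4× images. Treatment had been applied by pin tool the day after seeding as one drug alone or as a fixed anchor-drug dose with five library-drug doses (not always all listed) in √10 steps. Relative viability is the nuclei count of treated wells divided by that of vehicle wells, and values are medians of duplicate plates.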
# PC-3 [JPC-3] = tested on: PC-3 [JPC-3]
# How it was run: as §1
# NCI-H460 = tested on: NCI-H460
# How it was run: as §1
# NCI-H1650 = tested on: NCI-H1650
# How it was run: as §1
# NCI-H661 = tested on: NCI-H661
# How it was run: as §1
# NCI-H596 = tested on: NCI-H596
# How it was run: as §1
# EKVX = tested on: EKVX
# How it was run: as §1
# NCI-H1666 = tested on: NCI-H1666
# How it was run: as §1
# NCI-H520 = tested on: NCI-H520
# How it was run: as §1
# NCI-H727 = tested on: NCI-H727
# How it was run: as §1
# NCI-H1792 = tested on: NCI-H1792
# How it was run: as §1
# SK-LU-1 = tested on: SK-LU-1
# How it was run: as §1
compound,measurement,setting,value
CCNC(=O)c1noc(-c2cc(C(C)C)c(O)cc2O)c1-c1ccc(CN2CCOCC2)cc1 [Luminespib] + Nc1ncn([C@H]2C[C@H](O)[C@@H](CO)O2)c(=O)n1 [Decitabine] (partner 2 µM),relative viability,NCI-H838; first compound 0.06325 µM,0.176
same,relative viability,NCI-H838; first compound 0.2 µM,0.193
same,relative viability,PC-3 [JPC-3]; first compound 0.002 µM,0.888
same,relative viability,PC-3 [JPC-3]; first compound 0.006325 µM,0.842
same,relative viability,PC-3 [JPC-3]; first compound 0.02 µM,0.705
same,relative viability,PC-3 [JPC-3]; first compound 0.06325 µM,0.397
same,relative viability,PC-3 [JPC-3]; first compound 0.2 µM,0.506
same,relative viability,NCI-H460; first compound 0.002 µM,0.473
same,relative viability,NCI-H460; first compound 0.006325 µM,0.432
same,relative viability,NCI-H460; first compound 0.02 µM,0.0674
same,relative viability,NCI-H460; first compound 0.06325 µM,0.0264
same,relative viability,NCI-H460; first compound 0.2 µM,0.0329
same,relative viability,NCI-H1650; first compound 0.002 µM,0.463
same,relative viability,NCI-H1650; first compound 0.006325 µM,0.565
same,relative viability,NCI-H1650; first compound 0.02 µM,0.267
same,relative viability,NCI-H1650; first compound 0.06325 µM,0.137
same,relative viability,NCI-H1650; first compound 0.2 µM,0.133
same,relative viability,NCI-H661; first compound 0.002 µM,0.554
same,relative viability,NCI-H661; first compound 0.006325 µM,0.544
same,relative viability,NCI-H661; first compound 0.02 µM,0.454
same,relative viability,NCI-H661; first compound 0.06325 µM,0.315
same,relative viability,NCI-H661; first compound 0.2 µM,0.309
same,relative viability,NCI-H596; first compound 0.002 µM,1.07
same,relative viability,NCI-H596; first compound 0.006325 µM,0.887
same,relative viability,NCI-H596; first compound 0.02 µM,0.88
same,relative viability,NCI-H596; first compound 0.06325 µM,0.991
same,relative viability,NCI-H596; first compound 0.2 µM,1.01
same,relative viability,EKVX; first compound 0.002 µM,0.38
same,relative viability,EKVX; first compound 0.006325 µM,0.31
same,relative viability,EKVX; first compound 0.02 µM,0.273
same,relative viability,EKVX; first compound 0.06325 µM,0.253
same,relative viability,EKVX; first compound 0.2 µM,0.173
same,relative viability,NCI-H1666; first compound 0.002 µM,0.701
same,relative viability,NCI-H1666; first compound 0.006325 µM,0.676
same,relative viability,NCI-H1666; first compound 0.02 µM,0.715
same,relative viability,NCI-H1666; first compound 0.06325 µM,0.71
same,relative viability,NCI-H1666; first compound 0.2 µM,0.544
same,relative viability,NCI-H520; first compound 0.002 µM,0.533
same,relative viability,NCI-H520; first compound 0.006325 µM,0.506
same,relative viability,NCI-H520; first compound 0.02 µM,0.317
same,relative viability,NCI-H520; first compound 0.06325 µM,0.167
same,relative viability,NCI-H520; first compound 0.2 µM,0.152
same,relative viability,NCI-H727; first compound 0.002 µM,0.893
same,relative viability,NCI-H727; first compound 0.006325 µM,0.857
same,relative viability,NCI-H727; first compound 0.02 µM,0.652
same,relative viability,NCI-H727; first compound 0.06325 µM,0.461
same,relative viability,NCI-H727; first compound 0.2 µM,0.368
same,relative viability,NCI-H1792; first compound 0.002 µM,0.521
same,relative viability,NCI-H1792; first compound 0.006325 µM,0.458
same,relative viability,NCI-H1792; first compound 0.02 µM,0.429
same,relative viability,NCI-H1792; first compound 0.06325 µM,0.078
same,relative viability,NCI-H1792; first compound 0.2 µM,0.0722
same,relative viability,SK-LU-1; first compound 0.002 µM,0.725
same,relative viability,SK-LU-1; first compound 0.006325 µM,0.462
same,relative viability,SK-LU-1; first compound 0.02 µM,0.547
same,relative viability,SK-LU-1; first compound 0.06325 µM,0.198
same,relative viability,SK-LU-1; first compound 0.2 µM,0.216
